Results from patent US20230279025A1, “KRAS G12D INHIBITORS” (Mirati Therapeutics, Inc., priority 2020, published 2023).

Target: KRas G12D (Homo sapiens (Human), UniProt P01116, G12D)
Assay: KRas G12D Binding Assay (TR-FRET displacement of Cy5 labelled tracer)
Conditions: GDP-loaded KRAS G12D (amino acids 1:169), 60 minute incubation at 22° C.
Description: After a 60 minute incubation at 22° C., the reaction was measured using a PerkinElmer EnVision multimode plate reader via TR-FRET dual wavelength detection, and the percent of control (POC) calculated using a ratiometric emission factor. […] The POC values were fit to a 4-parameter logistic curve and the IC50 value was determined as the concentration where the curve crosses 50 POC.
ND stands for “not determined.”

KRas G12D, sequence (P01116 other isoform, or with tags, fused parts or gaps G12D): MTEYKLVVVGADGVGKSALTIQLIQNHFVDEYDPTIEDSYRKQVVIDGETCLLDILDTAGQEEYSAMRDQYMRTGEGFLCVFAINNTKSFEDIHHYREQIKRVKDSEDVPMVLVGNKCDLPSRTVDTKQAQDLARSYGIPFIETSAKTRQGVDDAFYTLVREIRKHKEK

Row | SMILES | IC50 [nM]
1 | Fc1cccc(-c2ncc3c(N4C[C@H]5CC[C@@H](C4)N5)nc(OCC45CCCN4CCC5)nc3c2F)c1OC(F)F [Example 302, 4-((1R,5S)-3,8-diazabicyclo[3.2.1]octan-3-yl)-7-(2-(difluoromethoxy)-3-fluorophenyl)-8-fluoro-2-((hexahydro-1H-pyrrolizin-7a-yl)methoxy)pyrido[4,3-d]pyrimidine] | 43.6
2 | Fc1c(-c2ccccc2OC(F)F)ncc2c(N3C[C@H]4CC[C@@H](C3)N4)nc(OCC34CCCN3CCC4)nc12 [Example 303, 4-((1R,5S)-3,8-diazabicyclo[3.2.1]octan-3-yl)-7-(2-(difluoromethoxy)phenyl)-8-fluoro-2-((hexahydro-1H-pyrrolizin-7a-yl)methoxy)pyrido[4,3-d]pyrimidine] | 357
3 | Fc1cccc(-c2ncc3c(N4C[C@H]5CC[C@@H](C4)N5)nc(OCC45CCCN4CCC5)nc3c2F)c1C1CC1 [Example 304, 4-((1R,5S)-3,8-diazabicyclo[3.2.1]octan-3-yl)-7-(2-cyclopropyl-3-fluorophenyl)-8-fluoro-2-((hexahydro-1H-pyrrolizin-7a-yl)methoxy)pyrido[4,3-d]pyrimidine] | 29.2
4 | CC1(c2ccccc2-c2ncc3c(N4C[C@H]5CC[C@@H](C4)N5)nc(OCC45CCCN4CCC5)nc3c2F)CC1 [Example 305, 4-((1R,5S)-3,8-diazabicyclo[3.2.1]octan-3-yl)-8-fluoro-2-((hexahydro-1H-pyrrolizin-7a-yl)methoxy)-7-(2-(1-methylcyclopropyl)phenyl)pyrido[4,3-d]pyrimidine] | 367
5 | CC(C)c1ccncc1-c1ncc2c(N3C[C@H]4CC[C@@H](C3)N4)nc(OCC34CCCN3CCC4)nc2c1F [Example 306, 4-((1R,5S)-3,8-diazabicyclo[3.2.1]octan-3-yl)-8-fluoro-2-((hexahydro-1H-pyrrolizin-7a-yl)methoxy)-7-(4-isopropylpyridine-3-yl)pyrido[4,3-d]pyrimidine] | 260
6 | CC(C)c1ncccc1-c1ncc2c(N3C[C@H]4CC[C@@H](C3)N4)nc(OCC34CCCN3CCC4)nc2c1F [Example 307, 4-((1R,5S)-3,8-diazabicyclo[3.2.1]octan-3-yl)-8-fluoro-2-((hexahydro-1H-pyrrolizin-7a-yl)methoxy)-7-(2-isopropylpyridin-3-yl)pyrido[4,3-d]pyrimidine] | 3160
7 | CN(C)Cc1ccc(COCCNC(=O)O[C@@H]2C[C@@H](COc3nc(N4C[C@H]5CC[C@@H](C4)N5)c4cnc(-c5cccc6cccc(Cl)c56)c(F)c4n3)N(C)C2)cc1 [Example 308, (3R,5S)-5-(((4-((1R,5S)-3,8-diazabicyclo[3.2.1]octan-3-yl)-7-(8-chloronaphthalen-1-yl)-8-fluoropyrido[4,3-d]pyrimidin-2-yl)oxy)methyl)-1-methylpyrrolidin-3-yl (2-((4-((dimethylamino)methyl)benzyl)oxy)ethyl)carbamate] | 117
8 | CC(C)c1ccccc1-c1ncc2c(N3C[C@H]4CC[C@@H](C3)N4)nc(OCC34CCCN3CCC4)nc2c1F [Example 309, 4-((1R,5S)-3,8-diazabicyclo[3.2.1]octan-3-yl)-8-fluoro-7-(2-isopropylphenyl)-2-((tetrahydro-1H-pyrrolizin-7a(5H)-yl)methoxy)pyrido[4,3-d]pyrimidine] | 205
9 | Fc1c(-c2ccccc2Cl)ncc2c(N3C[C@H]4CC[C@@H](C3)N4)nc(OCC34CCCN3CCC4)nc12 [Example 310, 4-((1R,5S)-3,8-diazabicyclo[3.2.1]octan-3-yl)-7-(2-chlorophenyl)-8-fluoro-2-((hexahydro-1H-pyrrolizin-7a-yl)methoxy)pyrido[4,3-d]pyrimidine] | 559
10 | COc1c(Cl)cccc1-c1ncc2c(N3C[C@H]4CC[C@@H](C3)N4)nc(OCC34CCCN3CCC4)nc2c1F [Example 311, 4-((1R,5S)-3,8-diazabicyclo[3.2.1]octan-3-yl)-7-(3-chloro-2-methoxyphenyl)-8-fluoro-2-((hexahydro-1H-pyrrolizin-7a-yl)methoxy)pyrido[4,3-d]pyrimidine] | 135
11 | CCc1c(Cl)cccc1-c1ncc2c(N3C[C@H]4CC[C@@H](C3)N4)nc(OCC34CCCN3CCC4)nc2c1F [Example 312, 4-((1R,5S)-3,8-diazabicyclo[3.2.1]octan-3-yl)-7-(3-chloro-2-ethylphenyl)-8-fluoro-2-((hexahydro-1H-pyrrolizin-7a-yl)methoxy)pyrido[4,3-d]pyrimidine] | 9
12 | COc1c(C)cccc1-c1ncc2c(N3C[C@H]4CC[C@@H](C3)N4)nc(OCC34CCCN3CCC4)nc2c1F [Example 313, 4-((1R,5S)-3,8-diazabicyclo[3.2.1]octan-3-yl)-8-fluoro-2-((hexahydro-1H-pyrrolizin-7a-yl)methoxy)-7-(2-methoxy-3-methylphenyl)pyrido[4,3-d]pyrimidine] | 231
13 | CCc1c(F)ccc2cc(O)cc(-c3ncc4c(N5C[C@H]6CC[C@@H](C5)N6)nc(OCC56CCCN5CCC6)nc4c3F)c12 [Example 314, 4-(4-((1R,5S)-3,8-diazabicyclo[3.2.1]octan-3-yl)-8-fluoro-2-((hexahydro-1H-pyrrolizin-7a-yl)methoxy)pyrido[4,3-d]pyrimidin-7-yl)-5-ethyl-6-fluoronaphthalen-2-ol] | 0.6
14 | OCCc1ccccc1-c1ncc2c(N3C[C@H]4CC[C@@H](C3)N4)nc(OCC34CCCN3CCC4)nc2c1F [Example 315, 2-(2-(4-((1R,5S)-3,8-diazabicyclo[3.2.1]octan-3-yl)-8-fluoro-2-((hexahydro-1H-pyrrolizin-7a-yl)methoxy)pyrido[4,3-d]pyrimidin-7-yl)phenyl)ethanol] | 2540
15 | Cc1ccc2cccc(-c3ncc4c(N5C[C@H]6CC[C@@H](C5)N6)nc(OC[C@@H]5CCCN5C)nc4c3F)c2c1 [Example 321, 4-((1R,5S)-3,8-diazabicyclo[3.2.1]octan-3-yl)-8-fluoro-7-(7-methylnaphthalen-1-yl)-2-(((S)-1-methylpyrrolidin-2-yl)methoxy)pyrido[4,3-d]pyrimidine] | 613
16 | Fc1c(-c2cccc(Cl)c2C2CC2)ncc2c(N3C[C@H]4CC[C@@H](C3)N4)nc(OCC34CCCN3CCC4)nc12 [Example 322, 4-((1R,5S)-3,8-diazabicyclo[3.2.1]octan-3-yl)-7-(3-chloro-2-cyclopropylphenyl)-8-fluoro-2-((tetrahydro-1H-pyrrolizin-7a(5H)-yl)methoxy)pyrido[4,3-d]pyrimidine] | 4.9
17 | CN1CCCC1(CO)COc1nc(N2C[C@H]3CC[C@@H](C2)N3)c2cnc(-c3cccc4ccccc34)c(F)c2n1 (stereo partly drawn) [Example 323, (2-(((4-((1R,5S)-3,8-diazabicyclo[3.2.1]octan-3-yl)-8-fluoro-7-(naphthalen-1-yl)pyrido[4,3-d]pyrimidin-2-yl)oxy)methyl)-1-methylpyrrolidin-2-yl)methanol] | 1690
18 | Fc1c(-c2cccc(Cl)c2C(F)(F)F)ncc2c(N3C[C@H]4CC[C@@H](C3)N4)nc(OCC34CCCN3CCC4)nc12 [Example 328, 4-((1R,5S)-3,8-diazabicyclo[3.2.1]octan-3-yl)-7-(3-chloro-2-(trifluoromethyl)phenyl)-8-fluoro-2-((tetrahydro-1H-pyrrolizin-7a(5H)-yl)methoxy)pyrido[4,3-d]pyrimidine] | 9.4
19 | CSc1ccccc1-c1ncc2c(N3C[C@H]4CC[C@@H](C3)N4)nc(OCC34CCCN3CCC4)nc2c1F [Example 329, 4-((1R,5S)-3,8-diazabicyclo[3.2.1]octan-3-yl)-8-fluoro-7-(2-(methylthio)phenyl)-2-((tetrahydro-1H-pyrrolizin-7a(5H)-yl)methoxy)pyrido[4,3-d]pyrimidine] | 202
20 | Cc1ccc2[nH]ncc2c1-c1ncc2c(N3C[C@H]4CC[C@@H](C3)N4)nc(OCC34CCCN3CCC4)nc2c1F [Example 332, 4-((1R,5S)-3,8-diazabicyclo[3.2.1]octan-3-yl)-8-fluoro-7-(5-methyl-1H-indazol-4-yl)-2-((tetrahydro-1H-pyrrolizin-7a(5H)-yl)methoxy)pyrido[4,3-d]pyrimidine] | 164
21 | Cc1cccc2cccc(-c3ncc4c(N5C[C@H]6CC[C@@H](C5)N6)nc(OCC56CCCN5CCC6)nc4c3F)c12 [Example 334, 4-((1R,5S)-3,8-diazabicyclo[3.2.1]octan-3-yl)-8-fluoro-7-(8-methylnaphthalen-1-yl)-2-((tetrahydro-1H-pyrrolizin-7a(5H)-yl)methoxy)pyrido[4,3-d]pyrimidine] | 10
22 | Fc1c(-c2cccc3cccc(C4CC4)c23)ncc2c(N3C[C@H]4CC[C@@H](C3)N4)nc(OCC34CCCN3CCC4)nc12 [Example 335, 4-((1R,5S)-3,8-diazabicyclo[3.2.1]octan-3-yl)-7-(8-cyclopropylnaphthalen-1-yl)-8-fluoro-2-((tetrahydro-1H-pyrrolizin-7a(5H)-yl)methoxy)pyrido[4,3-d]pyrimidine] | 25.8
23 | CN1CCC[C@H]1COc1nc(N2CC3CCC(C2)N3)c2cnc(-c3c(Cl)c(O)cc4ccccc34)c(F)c2n1 [Example 337, 4-(4-(3,8-diazabicyclo[3.2.1]octan-3-yl)-8-fluoro-2-(((S)-1-methylpyrrolidin-2-yl)methoxy)pyrido[4,3-d]pyrimidin-7-yl)-3-chloronaphthalen-2-ol] | 2.2
24 | N#CC[C@@H]1C[C@@H]2CN(c3nc(OCC45CCCN4CCC5)nc4c(F)c(-c5cc(O)cc6ccccc56)ncc34)C[C@H]1N2 [Example 338, 2-((1R,5S,6S)-3-(8-fluoro-7-(3-hydroxynaphthalen-1-yl)-2-((tetrahydro-1H-pyrrolizin-7a(5H)-yl)methoxy)pyrido[4,3-d]pyrimidin-4-yl)-3,8-diazabicyclo[3.2.1]octan-6-yl)acetonitrile] | 33.1
25 | Oc1ccc(OC(F)(F)F)c(-c2ncc3c(N4C[C@H]5CC[C@@H](C4)N5)nc(OCC45CCCN4CCC5)nc3c2F)c1 [Example 341, 3-(4-((1R,5S)-3,8-diazabicyclo[3.2.1]octan-3-yl)-8-fluoro-2-((tetrahydro-1H-pyrrolizin-7a(5H)-yl)methoxy)pyrido[4,3-d]pyrimidin-7-yl)-4-(trifluoromethoxy)phenol] | 0.7
